The values below come from patent US8008299B2, “Urotensin II receptor antagonists” (Janssen Pharmaceutica, N.V., priority 2007, dated 2011).

The target in assay [1] is T1, Human UII (U-II receptor) in 6D9 human rhabdomyosarcoma cells (Homo sapiens, UniProt Q9UKP6).
T1 construct: 6D9: isolated by dilution subcloning of RMS13 cells, ATCC® Number: CRL-2061; host or cells: 6D9 human rhabdomyosarcoma cells (subclone of RMS13)
T1 sequence (Q9UKP6 1-389): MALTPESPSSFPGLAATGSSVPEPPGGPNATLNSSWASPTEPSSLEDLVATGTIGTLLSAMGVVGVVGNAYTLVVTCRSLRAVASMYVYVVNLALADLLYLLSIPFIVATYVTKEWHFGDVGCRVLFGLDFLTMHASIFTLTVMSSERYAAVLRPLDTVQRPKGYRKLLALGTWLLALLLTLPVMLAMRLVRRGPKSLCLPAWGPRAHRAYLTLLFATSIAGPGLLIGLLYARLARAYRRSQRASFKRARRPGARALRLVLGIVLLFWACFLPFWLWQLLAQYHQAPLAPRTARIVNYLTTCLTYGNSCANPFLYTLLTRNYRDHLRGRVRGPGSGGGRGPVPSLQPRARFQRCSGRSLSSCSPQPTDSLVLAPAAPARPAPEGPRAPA
The experiment in a line: Human UII Calcium Mobilization Assay. The format is cell-based. The following applies: 6D9 human rhabdomyosarcoma cells, FLIPR TETRA, average; read-out: Human UII Ca+ Mobilization Average IC50. How it is done:
25 μL of dye solution was added to the wells such that the final liquid volume before agonist/antagonist treatment was 50 μL for all assays. The cell plates were incubated at 37° C. for 45 minutes and the fluorescence intensity was measured on a Fluorometric Imaging Plate Reader (FLIPR^TETRA, Molecular Devices, Sunnyvale, Calif.).
Antagonist and agonist U-II were added at room temperature on the FLIPR^TETRA, and the fluorescence intensity before and after addition was measured over a period of 4 minutes. The dye incubation time and temperature as well as instrument setting was adjusted so the fluorescence intensity could be compared between plates on the same day. EC50 and IC50 were analyzed using GraphPad Prism 4 software (GraphPad Software Inc., San Diego, Calif.).
For assays, U-II agonist, U-II antagonist and urantide were diluted with HBSS/HEPES containing 0.01% FBS.
Test compounds were dissolved in DMSO at 10 mM concentration. The serial dilutions were carried out in HBSS/HEPES. The highest final DMSO concentration was at 0.1%.

Assay [2] concerns the target T2, UT receptors in HSMM (Human Skeletal Muscle Myoblasts) (Homo sapiens, UniProt Q9UKP6).
T2 sequence (Q9UKP6 1-389): T1 sequence (Q9UKP6 1-389)
The experiment in a line: Human Radioligand Binding Assay ((^125I)-U-II binding to intact HSMM).

Assay [3] concerns the target T3, rat GPR14 (U-II receptor) (Rattus norvegicus, UniProt P49684).
T3 construct: expressed in transfected cells
T3 sequence (P49684 1-386): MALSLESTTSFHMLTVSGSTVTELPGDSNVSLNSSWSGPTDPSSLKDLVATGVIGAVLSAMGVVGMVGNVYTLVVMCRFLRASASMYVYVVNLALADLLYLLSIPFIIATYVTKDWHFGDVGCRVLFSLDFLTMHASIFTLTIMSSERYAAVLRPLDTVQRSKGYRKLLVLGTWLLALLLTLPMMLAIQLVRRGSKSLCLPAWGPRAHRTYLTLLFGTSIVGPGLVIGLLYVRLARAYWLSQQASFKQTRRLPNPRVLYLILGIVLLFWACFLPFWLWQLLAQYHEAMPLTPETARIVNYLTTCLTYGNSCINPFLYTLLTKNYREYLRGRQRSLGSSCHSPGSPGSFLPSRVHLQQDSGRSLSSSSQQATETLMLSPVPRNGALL
The experiment in a line: Rat UII Calcium Mobilization FLIPR Assay. To be noted: CHO cells transfected with rat GPR14; antagonist activity after 5 min incubation vs agonist (Ac)-CFWK(2-NaI)C-NH2 at 1 nM. The format is cell-based. The source says:
To derive these cells, the complete coding sequence of rat U-II (Genbank Accession No. U32673) was amplified by nested PCR from rat heart marathon-Ready cDNA. […] The PCR products were cloned into pcDNA3 (Invitrogen) digested with EcoR I and Xba I. Clones containing rat U-II receptor were verified by complete sequencing of the U-II receptor insert to ensure a lack of PCR-introduced errors. The constructed vector was transfected into CHO cells by using lipofectamine (GIBCO BRL). CHO cells with high expression of rat U-II receptor were selected and established as stable cell lines by using G418. CHO cells were seeded at 25,000 cells per well into 96-well, black-wall, clear-bottom microtiter plates 24 h before assay. Cells in culture media (DMEM/F12 containing 15 mM HEPES, L-glutamine, pyridoxine hydrochloride; 10% fetal bovine serum; 1 mg/mL G418 sulfate; antibiotic-antimycotic; pH 7.4) were loaded with proprietary dye, from the FLIPR Calcium Assay Kit (Molecular Devices), prepared in assay buffer (Hanks Balanced Salts Solution, 20 mM HEPES, 0.1% BSA, 2.5 mM probenecid, pH 7.4), and incubated for 1 h at 37° C. Calcium mobilization determinations were performed at room temperature (23° C.).

pIC50, pKi: −log10 of the molar value.

Broadly, the pIC50 is the negative decadic logarithm of the IC50, by convention in mol/L. The pKi is the negative decadic logarithm of the Ki, by convention in mol/L. Take `CCN1CCN(c2cccc3c2CN([C@H](CCCN2Cc4ccccc4C2)c2ccc(OC)c(OC)c2)C3=O)CC1` [Cpd 100, 2-[(1R)-4-(1,3-dihydro-isoindol-2-yl)-1-(3,4-dimethoxy-phenyl)-butyl]-4-(4-ethyl-piperazin-1-yl)-2,3-dihydro-isoindol-1-one]: the figures for the pIC50 in assay [1] and in assay [3] were 6.50 and 8.10, respectively. In assay [2], this compound gave a pKi of 7.62.
`CCN1CCN(c2cccc3c2CN([C@H](CCCn2ncnn2)c2ccc(OC)c(OC)c2)C3=O)CC1` [Cpd 15, 2-[(1R)-1-(3,4-dimethoxy-phenyl)-4-tetrazol-2-yl-butyl]-4-(4-ethyl-piperazin-1-yl)-2,3-dihydro-isoindol-1-one]: the negative logarithm of the IC50 (pIC50) in assay [1] is 5.80; in assay [3], 7.24. Further, the pKi in assay [2] is 6.76.
The like results for `COc1ccc([C@@H](CCCNc2nccc(C(F)(F)F)n2)N2Cc3c(cccc3N3CCN(C4CC4)CC3)C2=O)cc1OC` [Cpd 4, 4-(4-cyclopropyl-piperazin-1-yl)-2-[(1R)-1-(3,4-dimethoxy-phenyl)-4-(4-trifluoromethyl-pyrimidin-2-ylamino)-butyl]-2,3-dihydro-isoindol-1-one] were, in that order, 5.15, 5.77 and under 6.52.
The like results for `CCN1CCN(c2cccc3c2CN([C@H](CCCN2CCc4ccccc4C2)c2ccc(OC)c(OC)c2)C3=O)CC1` [Cpd 101, 2-[(1R)-4-(3,4-dihydro-1H-isoquinolin-2-yl)-1-(3,4-dimethoxy-phenyl)-butyl]-4-(4-ethyl-piperazin-1-yl)-2,3-dihydro-isoindol-1-one] were, in that order, 7.16, 8.30 and 7.68.
For the compound `CCN1CCN(c2cccc3c2CN([C@H](CCCn2cncn2)c2ccc(OC)c(OC)c2)C3=O)CC1` [Cpd 25, 2-[(1R)-1-(3,4-dimethoxy-phenyl)-4-[1,2,4]triazol-1-yl-butyl]-4-(4-ethyl-piperazin-1-yl)-2,3-dihydro-isoindol-1-one], the pIC50 was 5.68 in assay [1] and 6.84 in assay [3]. Besides, the pKi in assay [2] was 6.52.
The matching figures for `CCc1ccnc(NCCC[C@H](c2ccc(OC)c(OC)c2)N2Cc3c(cccc3N3CCN(CC)CC3)C2=O)n1` [Cpd 20, 2-[(1R)-1-(3,4-dimethoxy-phenyl)-4-(4-ethyl-pyrimidin-2-ylamino)-butyl]-4-(4-ethyl-piperazin-1-yl)-2,3-dihydro-isoindol-1-one]: 6.31, 7.47 and 7.32.
As to `CCN1CCN(c2cccc3c2CN([C@H](CCCNC(=O)c2ccco2)c2ccc(OC)c(OC)c2)C3=O)CC1` [Cpd 78, furan-2-carboxylic acid {(4R)-4-(3,4-dimethoxy-phenyl)-4-[4-(4-ethyl-piperazin-1-yl)-1-oxo-1,3-dihydro-isoindol-2-yl]-butyl}-amide], the pIC50 in assay [1] is 6.40; in assay [3], 7.82. Also, the pKi in assay [2] was 7.70.
In the case of `CCN1CCN(c2cccc3c2CN([C@H](CCCNC(=O)c2nccn2C)c2ccc(OC)c(OC)c2)C3=O)CC1` [Cpd 56, 1-methyl-1H-imidazole-2-carboxylic acid {(4R)-4-(3,4-dimethoxy-phenyl)-4-[4-(4-ethyl-piperazin-1-yl)-1-oxo-1,3-dihydro-isoindol-2-yl]-butyl}-amide], the values for the pIC50 in assay [1] and in assay [3] were 6.16 and 7.10, respectively. This compound had a negative logarithm of the Ki (pKi) in assay [2] of 6.90.
For the compound `CCN1CCN(c2cccc3c2CN(C(c2ccc(OC)c(OC)c2)C2CCN(Cc4ccccc4)CC2)C3=O)CC1` (stereo not drawn) [Cpd 43, 2-[(1-benzyl-piperidin-4-yl)-(3,4-dimethoxy-phenyl)-methyl]-4-(4-ethyl-piperazin-1-yl)-2,3-dihydro-isoindol-1-one], the pIC50 is 5.57 in assay [1] and 6.76 in assay [3]. Besides, in assay [2], the pKi was under 6.52.
As to `CCN1CCN(c2cccc3c2CN(C(c2cccc(NS(=O)(=O)c4cccs4)c2)c2ccc(OC)c(OC)c2)C3=O)CC1` (stereo not drawn) [Cpd 16, thiophene-2-sulfonic acid (3-{(3,4-dimethoxy-phenyl)-[4-(4-ethyl-piperazin-1-yl)-1-oxo-1,3-dihydro-isoindol-2-yl]-methyl}-phenyl)-amide], the pIC50 is 5.90 in assay [1] and 7.51 in assay [3]. In assay [2], this compound gave a pKi of 7.18.
The matching figures for `CCN1CCN(c2cccc3c2CN([C@H](CCCOCc2c(F)cccc2F)c2ccc(OC)c(OC)c2)C3=O)CC1` [Cpd 46, 2-[(1R)-4-(2,6-difluoro-benzyloxy)-1-(3,4-dimethoxy-phenyl)-butyl]-4-(4-ethyl-piperazin-1-yl)-2,3-dihydro-isoindol-1-one]: under 5.00, 5.11 and under 6.52.
As to `CCN1CCN(c2cccc3c2CN([C@H](CCCN(Cc2ccccc2)C(C)C)c2ccc(OC)c(OC)c2)C3=O)CC1` [Cpd 96, 2-[(1R)-4-(benzyl-isopropyl-amino)-1-(3,4-dimethoxy-phenyl)-butyl]-4-(4-ethyl-piperazin-1-yl)-2,3-dihydro-isoindol-1-one], the pIC50 in assay [1] is 6.82; in assay [3], 7.82. In assay [2], this compound gave a pKi of 7.16.
In the case of `CCN1CCN(c2cccc3c2CN([C@H](CCCNS(=O)(=O)N(C)C)c2ccc(OC)c(OC)c2)C3=O)CC1` [Cpd 70, dimethylaminosulfonic acid {(4R)-4-(3,4-dimethoxy-phenyl)-4-[4-(4-ethyl-piperazin-1-yl)-1-oxo-1,3-dihydro-isoindol-2-yl]-butyl}-amide], the pIC50 in assay [1] is 7.01; in assay [3] it was 8.10. In addition, in assay [2], the pKi was 7.27.
With `CCN1CCN(c2cccc3c2CN([C@H](CCCN(C)Cc2ccco2)c2ccc(OC)c(OC)c2)C3=O)CC1` [Cpd 94, 2-[(1R)-1-(3,4-dimethoxy-phenyl)-4-(furan-2-ylmethyl-methyl-amino)-butyl]-4-(4-ethyl-piperazin-1-yl)-2,3-dihydro-isoindol-1-one], the negative logarithm of the IC50 (pIC50) was 7.13 in assay [1] and 8.40 in assay [3]. In assay [2], this compound had a pKi of 7.37.
As for `CCN1CCN(c2cccc3c2CN([C@H](CCCSc2nc(C)cc(C)n2)c2ccc(OC)c(OC)c2)C3=O)CC1` [Cpd 27, 2-[(1R)-1-(3,4-dimethoxy-phenyl)-4-(4,6-dimethyl-pyrimidin-2-ylsulfanyl)-butyl]-4-(4-ethyl-piperazin-1-yl)-2,3-dihydro-isoindol-1-one], the pIC50 in assay [1] was 6.97; in assay [3], 8.52. In assay [2], this compound had a pKi of 7.72.
The like results for `CCN1CCN(c2cccc3c2CN([C@H](CCCNCc2ccccc2)c2ccc(OC)c(OC)c2)C3=O)CC1` [Cpd 77, 2-[(1R)-4-benzylamino-1-(3,4-dimethoxy-phenyl)-butyl]-4-(4-ethyl-piperazin-1-yl)-2,3-dihydro-isoindol-1-one] were, in that order, 7.33, 8.30 and 7.59.
